Laboratory results from the supplement of paper PMC10307832.

Legend:
Test in all cases: relative viability (nuclei count vs DMSO), 5 days (fraction); higher = more cells survive
CAP-232 + Crizotinib = compound: C[C@H]([C@@H](C(=O)N)NC(=O)[C@@H]1CSSC[C@@H](C(=O)N[C@H](C(=O)N[C@@H](C(=O)N[C@H](C(=O)N1)CCCCN)CC2=CNC3=CC=CC=C32)CC4=CC=C(C=C4)O)NC(=O)[C@@H](CC5=CC=CC=C5)N)O [CAP-232] + C[C@@H](Oc1cc(-c2cnn(C3CCNCC3)c2)cnc1N)c1c(Cl)ccc(F)c1Cl [Crizotinib] (partner 1 µM)
Procedure, shortened: (§1)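 Relative viability was taken as the ratio of nuclei in treated wells to nuclei in vehicle wells. Lung cancer cell lines in 1536-well plates received compounds by pin tool one day after seeding, either one drug alone or a fixed anchor-drug dose plus five library-drug doses (not always all listed) in √10 steps. Nuclei were counted on 4× images after 5 days of treatment, and values are medians of duplicate plates.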

CAP-232 + Linsitinib = compound: C[C@H]([C@@H](C(=O)N)NC(=O)[C@@H]1CSSC[C@@H](C(=O)N[C@H](C(=O)N[C@@H](C(=O)N[C@H](C(=O)N1)CCCCN)CC2=CNC3=CC=CC=C32)CC4=CC=C(C=C4)O)NC(=O)[C@@H](CC5=CC=CC=C5)N)O [CAP-232] + C[C@]1(O)C[C@@H](c2nc(-c3ccc4ccc(-c5ccccc5)nc4c3)c3c(N)nccn32)C1 [Linsitinib] (partner 1 µM)
Procedure, shortened: as §1

CAP-232 + Phenformin = compound: C[C@H]([C@@H](C(=O)N)NC(=O)[C@@H]1CSSC[C@@H](C(=O)N[C@H](C(=O)N[C@@H](C(=O)N[C@H](C(=O)N1)CCCCN)CC2=CNC3=CC=CC=C32)CC4=CC=C(C=C4)O)NC(=O)[C@@H](CC5=CC=CC=C5)N)O [CAP-232] + N=C(N)NC(=N)NCCc1ccccc1 [Phenformin] (partner 250 µM)
Procedure, shortened: as §1

CAP-232 + Foretinib = compound: C[C@H]([C@@H](C(=O)N)NC(=O)[C@@H]1CSSC[C@@H](C(=O)N[C@H](C(=O)N[C@@H](C(=O)N[C@H](C(=O)N1)CCCCN)CC2=CNC3=CC=CC=C32)CC4=CC=C(C=C4)O)NC(=O)[C@@H](CC5=CC=CC=C5)N)O [CAP-232] + COc1cc2c(Oc3ccc(NC(=O)C4(C(=O)Nc5ccc(F)cc5)CC4)cc3F)ccnc2cc1OCCCN1CCOCC1 [Foretinib] (partner 0.25 µM)
Procedure, shortened: as §1

CAP-232 = compound: C[C@H]([C@@H](C(=O)N)NC(=O)[C@@H]1CSSC[C@@H](C(=O)N[C@H](C(=O)N[C@@H](C(=O)N[C@H](C(=O)N1)CCCCN)CC2=CNC3=CC=CC=C32)CC4=CC=C(C=C4)O)NC(=O)[C@@H](CC5=CC=CC=C5)N)O [CAP-232]
Procedure, shortened: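 Viability was defined as treated-well nuclei divided by vehicle-well nuclei, with the median taken over replicate plates. Cells from lung cancer lines sat overnight at 37 °C in 1536-well plates, received five √10-spaced library-drug doses by pinning on vehicle-anchored plates, and grew 5 days without medium change before one-step fixation, permeabilisation and Hoechst staining, 4× imaging and MetaXpress nuclear counts. Only plates with control CV under 25% and at least one doubling were kept.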

| Cell Line | relative viability (CAP-232 + Crizotinib; first compound 0.4 µM) | relative viability (CAP-232 + Crizotinib; first compound 4 µM) | relative viability (CAP-232 + Crizotinib; first compound 12.65 µM) | relative viability (CAP-232 + Linsitinib; first compound 0.4 µM) | relative viability (CAP-232 + Linsitinib; first compound 4 µM) | relative viability (CAP-232 + Linsitinib; first compound 12.65 µM) | relative viability (CAP-232 + Phenformin; first compound 0.4 µM) | relative viability (CAP-232 + Phenformin; first compound 1.265 µM) | relative viability (CAP-232 + Phenformin; first compound 4 µM) | relative viability (CAP-232 + Phenformin; first compound 12.65 µM) | relative viability (CAP-232 + Foretinib; first compound 0.4 µM) | relative viability (CAP-232 + Foretinib; first compound 1.265 µM) | relative viability (CAP-232 + Foretinib; first compound 4 µM) | relative viability (CAP-232 + Foretinib; first compound 12.65 µM) | relative viability (CAP-232; 0.4 µM) | relative viability (CAP-232; 1.265 µM) | relative viability (CAP-232; 4 µM) | relative viability (CAP-232; 12.65 µM) | relative viability (CAP-232 + Crizotinib; first compound 1.265 µM) | relative viability (CAP-232 + Linsitinib; first compound 1.265 µM) |
| --- | --- | --- | --- | --- | --- | --- | --- | --- | --- | --- | --- | --- | --- | --- | --- | --- | --- | --- | --- | --- |
| NCI-H1666 | 1.03 | 0.829 | 0.852 | 0.721 | 0.85 | 0.619 | 0.611 | 0.575 | 0.573 | 0.593 | 0.946 | 0.989 | 0.892 | 0.821 | 0.927 | 0.913 | 1.02 | 0.871 | – | – |
| LOU-NH91 | 0.748 | 0.921 | 0.705 | 0.923 | 0.865 | 0.719 | 0.725 | 0.752 | 0.769 | 0.487 | 0.994 | 0.903 | 0.86 | 0.919 | 1.01 | 0.908 | 0.934 | 0.686 | 0.76 | 1.06 |
| ABC-1 | 1.01 | 1.08 | 0.903 | 1.07 | 0.726 | 0.427 | 0.249 | 0.243 | 0.215 | 0.186 | 0.772 | 0.876 | 1.35 | 0.677 | 0.968 | 0.789 | 0.957 | 0.603 | 1.17 | 0.781 |
| NCI-H1651 | 0.861 | 0.918 | 0.904 | 1.02 | 1.01 | 0.655 | 0.407 | 0.32 | 0.352 | 0.25 | 0.709 | 0.913 | 0.843 | 0.485 | 1.04 | 0.954 | 1.01 | 0.773 | 0.856 | 0.937 |
| 201T | 1.13 | 1.04 | 1.04 | 1.05 | 0.978 | 0.948 | 0.487 | 0.419 | 0.416 | 0.443 | 1.17 | 1.14 | 1.03 | 0.864 | 1.07 | 0.952 | 0.996 | 1.02 | 1.02 | 0.974 |
| NCI-H3122 | 0.274 | 0.308 | 0.277 | 0.991 | 1.01 | 1.08 | 0.404 | 0.388 | 0.395 | 0.335 | 0.91 | 0.97 | 0.795 | 1.03 | 1 | 1 | 0.984 | 0.957 | 0.313 | 0.979 |
| A549 | 0.86 | 0.871 | 0.251 | 0.621 | 0.583 | 0.531 | 0.164 | 0.183 | 0.146 | 0.113 | 1.01 | 0.998 | 0.935 | 0.369 | 0.999 | 0.895 | 1.14 | 0.597 | 0.734 | 0.59 |
| NCI-H838 | 1.03 | 0.981 | 0.65 | 1.09 | 1.08 | 0.595 | 0.609 | 0.53 | 0.593 | 0.537 | 1.23 | 1.02 | 1.11 | 0.75 | 1.03 | 0.943 | 1.05 | 0.757 | 0.804 | 1.01 |
| HCC-44 | 0.866 | 0.863 | 0.846 | 0.817 | 0.754 | 0.627 | 0.392 | 0.128 | 0.194 | 0.171 | – | – | – | – | 1.11 | 0.988 | 0.963 | 0.978 | 0.812 | 0.666 |
| ChaGo-K-1 | 1.22 | 1.41 | 0.833 | – | – | – | 0.487 | 0.466 | 0.601 | 0.505 | 0.954 | 0.779 | 0.836 | 0.912 | 1.1 | 0.99 | 1.05 | 1.04 | 1.17 | – |
| NCI-H1703 | 0.788 | 0.74 | 0.695 | 0.489 | 0.933 | 0.873 | – | – | – | – | 0.304 | 0.364 | 0.323 | 0.409 | 0.854 | 0.917 | 0.961 | 0.764 | 0.844 | 0.642 |
| NCI-H1793 | – | – | – | 1.09 | 0.652 | 0.801 | 0.4 | 0.367 | 0.329 | 0.372 | 0.678 | 0.761 | 0.639 | 0.725 | 1.01 | 0.911 | 0.869 | 0.917 | – | 1.06 |
| NCI-H1650 | 0.98 | 0.966 | 0.627 | – | – | – | 0.479 | 0.335 | 0.424 | 0.153 | 1.07 | 1.11 | 1.25 | 0.542 | 0.986 | 0.849 | 0.932 | 0.27 | 0.963 | – |
| NCI-H1395 | – | – | – | 1.3 | 1.03 | 0.831 | 0.46 | 0.4 | 0.448 | 0.453 | 0.971 | 0.997 | 0.854 | 1.11 | 1.05 | 0.846 | 0.995 | 0.925 | – | 0.986 |
| NCI-H1792 | 1.37 | 0.834 | 0.722 | 0.493 | 0.654 | 0.285 | 0.129 | 0.193 | 0.247 | 0.188 | – | – | – | – | 1.44 | 0.775 | 0.878 | 0.777 | 1.02 | 0.56 |
| IA-LM | 0.852 | 0.892 | 0.242 | 0.828 | 0.711 | 0.394 | – | – | – | – | 1.15 | 1.14 | 1.22 | 0.386 | 1.02 | 0.911 | 1.07 | 0.508 | 0.928 | 0.611 |
